According to patent publication US10149833B2, “Small molecule, indirubin-3-oxime, for prevention and treatment of bone disease” (Industry-Academic Cooperation Foundation, Yonsei University, priority 2013, dated 2018):
Entries after “also recorded” stand apart in the source; their conditions may differ.

Tests used:
GSKβ = assay: Western blot in RCS cells, inactive GSKβ; type: cell-based, Rat; settings: 24 hours treatment (FIG. 2A)
Protocol: (§1) Rat chondrosarcoma (RCS) cells were cultured in a Dulbecco's modified Eagle's medium (DMEM; Gibco, Grand Island, N.Y.), supplemented with 10% fetal bovine serum (FBS) and penicillin/streptomycin.
(§2) For Western blot analysis, cells were treated with indirubin-3′-oxime for 24 hours, cultured and reached to 70% confluency and then were harvested. After the harvested samples underwent cytolysis, the proteins were quantified, which was followed by electrophoresis using 10% or 12% SDA-PAGE gel. Afterwards, immunoblot was conducted using antibodies.
(§3) Indirubin-3′-oxime, a GSKβ inhibitor, is already known to increase the stability of β-catenin.

growth plate = growth plate activity in 7-week-old mice treated for 2 weeks; type: in vivo, C57BL/6 mice; settings: treated 2 weeks
Protocol: (§4) Two and six-week-old C57BL/6 mice, purchased from KOATECH (Gyeonggi-do, South Korea), were cared for in accordance with the guidelines established by the Institutional Animal Care and Use Committee at Yonsei University. The mice were divided into a control group and an experimental group, and were adapted to the environment for 1 week. Afterwards, they were treated every day for 2 weeks with a solution containing 20% dimethyl […] and 30% ethanol, or with indirubin-3′-oxime (0.05 mg/kg, 0.1 mg/kg, and 0.5 mg/kg), via intraperitoneal injection. Two weeks later, the tibiae were separated from mice, and then the muscles were separated and removed, after which the bones were fixed using 4% formaldehyde. The bones were treated for 2 weeks with a 10% EDTA solution for the decalcification process. The EDTA solution was changed every two days.
(§5) The tissue-cultured embryo tibiae and the animal-tested tibiae were dewaxed in xylene, and were rehydrated in a stepwise-diluted ethanol solution. The tibial tissue, which was separated from 15.5-embryonic-day-old ICR mice and then tissue-cultured, was stained using the safranin staining procedure. Staining was carried out for 25 min in a 0.02% fast green solution, and after brief dipping in acetic acid, was again carried out for 7 min in a 0.1% safranin solution. Meanwhile, the tibial tissue that was animal-tested and decalcified in EDTA was stained via the hematoxylin-eosin staining procedure. The tissue was stained in a hematoxylin solution for 10 min and then rinsed in running water for 10 min. After being briefly dipped in a solution comprising 0.1% hydrochloric acid and 70% ethanol, the tissue was stained for 30 sec in an eosin solution. The stained tibial tissues again underwent a dehydration process in the stepwise-diluted ethanol solution and were dewaxed in xylene.
The tibiae that underwent a dewaxing process were dehydrated. After paraffin blocks were formed, the tissues were sectioned at 4-μm thickness. The sectioned tissues were rehydrated, and then stained using immunofluorescence. […]

β-catenin [1] = assay: ICC analysis (immunocytochemistry), β-catenin translocation into the nucleus; type: cell-based, Rat; settings: RCS cells, 24 hours treatment (FIG. 2B)
Protocol: as §1
2.5×10^4 cells were adhered to a cover glass placed in a 12-well plate. Once securely attached, cells were treated with indirubin-3′-oxime for 24 hours, and then were rinsed with a phosphoric acid buffer solution. After adding 4% paraformaldehyde, cells were fixed at room temperature for 20 min. Then, proteins expressed in the cells were observed through cell membrane permeation, blocking, and immunofluorescent staining processes.
as §3

ex vivo tibia = ex vivo tibia culture, tibia length and safranin staining; type: cell-based, C57BL/6 mice; settings: 1 μM and 5 μM
Protocol: The tibiae were separated from 15.5-embryonic-day-old C57BL/6 mice, and were incubated in a 24-well tissue culture dish for 7 days. The medium used was prepared by adding 10% FBS, 1 mM beta-polyglycerol disodium phosphate, 50 ng/ml ascorbic acid, 0.3 mg/ml L-glutamine, 0.2% BSA, 100 U/ml penicillin, and 100 μg/ml streptomycin to a minimal essential medium (α-MEM, Gibco). Then, the tibiae were separated from the mice. After being treated in the medium for 24 hours, the tibia was treated with a drug. The medium and the drug were changed every two days. The tibia length was measured before and after treatment with the drug. The tibial tissue, on which drug treatment was completed, was rinsed with PBS and then fixed using 4% formaldehyde. The tissue-cultured embryo tibiae and the animal-tested tibiae were dewaxed in xylene, and were rehydrated in a stepwise-diluted ethanol solution. The tibial tissue, which was separated from 15.5-embryonic-day-old ICR mice and then tissue-cultured, was stained using the safranin staining procedure. Staining was carried out for 25 min in a 0.02% fast green solution, and after brief dipping in acetic acid, was again carried out for 7 min in a 0.1% safranin solution. Meanwhile, the tibial tissue that was animal-tested and decalcified in EDTA was stained via the hematoxylin-eosin staining procedure. […]

β-catenin [2] = assay: IHC analysis on ex vivo tibia tissues; type: cell-based, mice; settings: ex vivo tibiae treated with the drug (FIG. 2C)
Protocol: The tibiae were separated from 15.5-embryonic-day-old C57BL/6 mice, and were incubated in a 24-well tissue culture dish for 7 days. The medium used was prepared by adding 10% FBS, 1 mM beta-polyglycerol disodium phosphate, 50 ng/ml ascorbic acid, 0.3 mg/ml L-glutamine, 0.2% BSA, 100 U/ml penicillin, and 100 μg/ml streptomycin to a minimal essential medium (α-MEM, Gibco). Then, the tibiae were separated from the mice. After being treated in the medium for 24 hours, the tibia was treated with a drug. The medium and the drug were changed every two days. The tibia length was measured before and after treatment with the drug. The tibial tissue, on which drug treatment was completed, was rinsed with PBS and then fixed using 4% formaldehyde.
(§6) The tibiae that underwent a dewaxing process were dehydrated. After paraffin blocks were formed, the tissues were sectioned at 4-μm thickness. The sectioned tissues were rehydrated, and then stained using immunofluorescence.
as §3

tibia = tibia and growth plate length in mice dosed during a period of active growth; type: in vivo, C57BL/6 mice
Protocol: as §4, §5, §6
To understand whether indirubin-3′-oxime can actually produce an increase in bone length in mice, indirubin-3′-oxime was administered during a period of active growth, and its effect was examined (FIG. 4A). First of all, the effect on the activity of the growth plate in the middle of a period of growth was examined using the hematoxylin-eosin staining procedure (FIG. 4B).

β-catenin [3] = assay: Western blot in RCS cells, β-catenin; type: cell-based, Rat; settings: 24 hours treatment (FIG. 2A)
Protocol: as §1, §2, §3

[4] = growth plate at 9 weeks (FIG. 3C)

## O=C1Nc2ccccc2/C1=C1/Nc2ccccc2/C1=N\O [indirubin-3′-oxime]
GSKβ
  amount of inactive GSKβ (Western blot): increasing the amount of inactive GSK3; also recorded: increasing the amount of inactive GSKβ
Growth plate; [4]
  amount of Ki67, cell proliferation marker (IHC): increase in the amount of Ki67
  stability of β-catenin in growth plate (IHC): increase in the stability of β-catenin
Growth plate; intraperitoneal, compared with control at 9 weeks (FIG. 3B)
  activity of the growth plate (hematoxylin-eosin staining): inhibits growth plate senescence; also recorded: activity of the growth plate was still maintained
β-catenin [1]
  amount of β-catenin translocated into the nucleus (ICC): increase in the amount of β-catenin that was translocated into the nucleus
Ex vivo tibia; 6 days, ex vivo tibia (FIGS. 1C, 1D)
  length of resting zone, proliferating zone and hypertrophic chondrocyte zone (safranin staining): increase in the total length (the resting zone, the proliferating zone, and the hypertrophic chondrocyte zone) that depended on the concentration
Ex vivo tibia; tibiae treated for 6 days, ex vivo culture (FIGS. 1A, 1B)
  increase in the total length of the tibia: dose-dependently induces longitudinal bone growth; also recorded: increase in the total length depended on the concentration change
β-catenin [2]
  amount of β-catenin in the hypertrophic chondrocyte zone (IHC): amount of β-catenin markedly increased in the hypertrophic chondrocyte zone
tibia; 13-week-old mice (FIGS. 4D, 4E)
  persistence of the bone length effect after growth has ceased: lasts even in 13-week-old mice; also recorded: found to last even in 13-week-old mice
tibia; mice dosed during period of active growth (FIG. 4B)
  cell proliferation marker PCNA: confirmed through PCNA
tibia; mice dosed during period of active growth (FIG. 4D)
  total bone length of the tibia: increase in the total bone length of the tibia
tibia; mice dosed during period of active growth, hematoxylin-eosin staining (FIGS. 4B, 4C)
  length of each zone and total length of the growth plate: increases not only the length of each zone but also the total length of the growth plate; also recorded: increase not only in the length of each zone but also in the total length of the growth plate
β-catenin [3]
  stability of β-catenin (Western blot): increased the stability of β-catenin
